Assays:
[1] = target: T1, Group 10 secretory phospholipase A2 (Homo sapiens, UniProt O15496); assay: Inhibition of human cloned sPLA2-10 expressed in HEK293 cells
T1 sequence (O15496 whole entry): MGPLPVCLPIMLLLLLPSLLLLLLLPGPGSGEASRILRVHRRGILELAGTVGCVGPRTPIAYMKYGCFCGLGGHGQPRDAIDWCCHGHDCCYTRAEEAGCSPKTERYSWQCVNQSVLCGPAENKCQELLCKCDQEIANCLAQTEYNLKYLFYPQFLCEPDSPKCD

[2] = target: T2, Cytosolic phospholipase A2 (Homo sapiens, UniProt P47712); assay: Inhibition of human cloned cPLA2 expressed in HEK293 cells
T2 sequence (P47712 whole entry): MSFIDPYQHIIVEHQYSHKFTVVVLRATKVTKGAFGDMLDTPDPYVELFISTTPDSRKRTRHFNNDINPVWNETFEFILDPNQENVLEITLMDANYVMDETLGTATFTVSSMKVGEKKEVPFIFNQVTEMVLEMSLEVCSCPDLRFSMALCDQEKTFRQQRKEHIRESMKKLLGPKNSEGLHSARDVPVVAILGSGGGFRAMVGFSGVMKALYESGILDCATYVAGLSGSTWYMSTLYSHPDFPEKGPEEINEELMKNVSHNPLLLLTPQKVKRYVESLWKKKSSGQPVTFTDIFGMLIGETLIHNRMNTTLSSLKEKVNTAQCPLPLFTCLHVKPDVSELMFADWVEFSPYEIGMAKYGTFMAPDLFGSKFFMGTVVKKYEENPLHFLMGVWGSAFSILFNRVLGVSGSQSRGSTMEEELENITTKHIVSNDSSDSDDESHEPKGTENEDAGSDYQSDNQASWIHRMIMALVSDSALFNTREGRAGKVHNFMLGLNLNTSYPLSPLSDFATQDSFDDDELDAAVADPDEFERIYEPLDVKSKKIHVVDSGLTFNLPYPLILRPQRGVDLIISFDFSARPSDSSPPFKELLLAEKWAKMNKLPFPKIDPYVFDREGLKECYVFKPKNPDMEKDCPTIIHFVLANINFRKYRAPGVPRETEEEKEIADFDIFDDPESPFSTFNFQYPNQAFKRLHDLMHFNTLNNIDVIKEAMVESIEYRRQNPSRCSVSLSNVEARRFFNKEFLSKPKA

[3] = target: Phospholipase A2 (Rattus norvegicus, UniProt P04055); assay: Inhibition of rat cloned sPLA2-1B expressed in HEK293 cells
Phospholipase A2, sequence (P04055 whole entry): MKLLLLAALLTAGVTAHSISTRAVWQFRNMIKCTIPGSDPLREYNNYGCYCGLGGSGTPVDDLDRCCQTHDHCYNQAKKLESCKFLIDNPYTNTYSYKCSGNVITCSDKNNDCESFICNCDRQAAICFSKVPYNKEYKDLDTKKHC

Measured: IC50

O=c1cc(O)cc2oc(-c3ccc(O)c(-c4c(O)cc(O)c5c(=O)cc(-c6ccc(O)cc6)oc45)c3)cc(O)c1-2
> 100 µM: all assays above

O=c1cc(O)cc2oc(-c3ccc(Oc4cc(-c5cc(O)c6c(=O)cc(O)cc-6o5)ccc4O)cc3)cc(O)c1-2
> 100 µM: all assays above
